± gives the expanded uncertainty stated by the source.
Key:
[1] = 100.8 kPa, Liquid; for viscosity: Capillary tube (Ostwald / Ubbelohde) method
[2] = refractive index (Na D-line) (dimensionless); conditions: 101.33 kPa, Liquid, Standard Abbe refractometry
[3] = xn = mol fraction of the nth substance listed; conditions: 100.8 kPa, Liquid; for viscosity: Capillary tube (Ostwald / Ubbelohde) method
[4] = refractive index (Na D-line) (dimensionless); xn = mol fraction of the nth substance listed; conditions: 100.8 kPa, Liquid, Standard Abbe refractometry

CC(C)CC(C)(C)C [2,2,4-trimethylpentane]
Conditions | mass density, 288.15 K [kg/m3] | mass density, 298.15 K [kg/m3] | mass density, 308.15 K [kg/m3] | refractive index, 288.15 K | refractive index, 298.15 K | refractive index, 308.15 K | viscosity, 288.15 K [mPa·s] | viscosity, 298.15 K [mPa·s] | viscosity, 308.15 K [mPa·s]
[1] | 695.95 ± 0.31 | 687.74 ± 0.31 | 679.41 ± 0.32 | – | – | – | 0.537 ± 0.005 | 0.48 ± 0.004 | 0.432 ± 0.004
[2] | – | – | – | 1.39404 ± 0.00031 | 1.389 ± 0.00031 | 1.38395 ± 0.00031 | – | – | –

CC(C)=O [acetone]
Conditions | mass density, 288.15 K [kg/m3] | mass density, 298.15 K [kg/m3] | mass density, 308.15 K [kg/m3] | refractive index, 288.15 K | refractive index, 298.15 K | refractive index, 308.15 K | viscosity, 288.15 K [mPa·s] | viscosity, 298.15 K [mPa·s] | viscosity, 308.15 K [mPa·s]
[1] | 796.87 ± 0.22 | 785.47 ± 0.23 | 773.91 ± 0.24 | – | – | – | 0.334 ± 0.003 | 0.302 ± 0.003 | 0.274 ± 0.003
[2] | – | – | – | 1.36152 ± 0.00031 | 1.35605 ± 0.00031 | 1.35057 ± 0.00031 | – | – | –

CC(C)=O [acetone] + CC(C)CC(C)(C)C
x1 = 1
Conditions | mass density, 288.15 K [kg/m3] | mass density, 298.15 K [kg/m3] | mass density, 308.15 K [kg/m3] | refractive index, 288.15 K | refractive index, 298.15 K | refractive index, 308.15 K | viscosity, 288.15 K [mPa·s] | viscosity, 298.15 K [mPa·s] | viscosity, 308.15 K [mPa·s]
[3] | 796.87 ± 0.22 | 785.47 ± 0.23 | 773.91 ± 0.24 | – | – | – | 0.334 ± 0.003 | 0.302 ± 0.003 | 0.274 ± 0.003
[4] | – | – | – | 1.36152 ± 0.00031 | 1.35605 ± 0.00031 | 1.35057 ± 0.00031 | – | – | –

CCO [ethanol]
Conditions | mass density, 288.15 K [kg/m3] | mass density, 298.15 K [kg/m3] | mass density, 308.15 K [kg/m3] | refractive index, 288.15 K | refractive index, 298.15 K | refractive index, 308.15 K | viscosity, 288.15 K [mPa·s] | viscosity, 298.15 K [mPa·s] | viscosity, 308.15 K [mPa·s]
[1] | 793.74 ± 0.23 | 785.17 ± 0.23 | 776.49 ± 0.24 | – | – | – | 1.309 ± 0.011 | 1.084 ± 0.009 | 0.905 ± 0.008
[2] | – | – | – | 1.36342 ± 0.00031 | 1.35924 ± 0.00031 | 1.35502 ± 0.00031 | – | – | –

CCO [ethanol] + CC(C)=O
x2 = 0
Conditions | mass density, 288.15 K [kg/m3] | mass density, 298.15 K [kg/m3] | mass density, 308.15 K [kg/m3] | refractive index, 288.15 K | refractive index, 298.15 K | refractive index, 308.15 K | viscosity, 288.15 K [mPa·s] | viscosity, 298.15 K [mPa·s] | viscosity, 308.15 K [mPa·s]
[3] | 793.74 ± 0.23 | 785.17 ± 0.23 | 776.49 ± 0.24 | – | – | – | 1.309 ± 0.011 | 1.084 ± 0.009 | 0.905 ± 0.008
[4] | – | – | – | 1.36342 ± 0.00031 | 1.35924 ± 0.00031 | 1.35502 ± 0.00031 | – | – | –

CCO [ethanol] + CC(C)CC(C)(C)C
x1 = 1
Conditions | mass density, 288.15 K [kg/m3] | mass density, 298.15 K [kg/m3] | mass density, 308.15 K [kg/m3] | refractive index, 288.15 K | refractive index, 298.15 K | refractive index, 308.15 K | viscosity, 288.15 K [mPa·s] | viscosity, 298.15 K [mPa·s] | viscosity, 308.15 K [mPa·s]
[3] | 793.74 ± 0.23 | 785.17 ± 0.23 | 776.49 ± 0.24 | – | – | – | 1.309 ± 0.011 | 1.084 ± 0.009 | 0.905 ± 0.008
[4] | – | – | – | 1.36342 ± 0.00031 | 1.35924 ± 0.00031 | 1.35502 ± 0.00031 | – | – | –

From the NIST ThermoML archive (doi:10.1021/je050010l)
